# Measurements published in EP0137900B1, “Bis-platinum complexes as antitumor agents” (priority 1983, dated 1985).
# Key:
# [1] = Solubility (water, organic solvents, 1% NaHCO3, basic solutions); conditions: result in words
# [2] = tested on: murine tumor line L1210 leukemia; assay: Antitumor screen against murine L1210 leukemia implanted in mice; type: in vivo, CDF1 mice; conditions: for Percent Increase in Lifespan: start 24 hours after inoculation of 1 x 10^6 L1210 cells in CDF1 mice; for toxic dose: L1210-bearing mice
# [3] = 1% nahco3
# [4] = in water; cited from earlier work
substance,measurement,setting,value
"5,5'-carbonylbistrimellito bis [(1,2-diaminocyclohexane)platinum(II)1 [Example 6]",solubility in 1% NaHC03 solution,[1],dissolves readily
"benzenepentacarboxylatobis[(1,2-diaminocyclohexane) platinum(ll)] [Example 1]",Percent Increase in Lifespan,"[2]; Dose 2.5 mg/kg, Daily x 7, intraperitoneally, in 1% NaHCO3",87%
same,Percent Increase in Lifespan,"[2]; Dose 2.5 mg/kg, schedule 'Drugs 1, 5 and 9' [sic], intraperitoneally",21%
same,Percent Increase in Lifespan,"[2]; Dose 5.0 mg/kg, Daily x 7, intraperitoneally, in 1% NaHCO3",117%
same,Percent Increase in Lifespan,"[2]; Dose 5.0 mg/kg, schedule 'Drugs 1, 5 and 9' [sic], intraperitoneally",43%
same,Percent Increase in Lifespan,"[2]; Dose 10.0 mg/kg, Daily x 7, intraperitoneally, in 1% NaHCO3",61%
same,Percent Increase in Lifespan,"[2]; Dose 10.0 mg/kg, schedule 'Drugs 1, 5 and 9' [sic], intraperitoneally",135%
same,Percent Increase in Lifespan,"[2]; Dose 20.0 mg/kg, schedule 'Drugs 1, 5 and 9' [sic], intraperitoneally",193%
same,toxic dose,[2]; daily x 7 schedule,20 mg/kg
same,toxic dose,"[2]; days 1, 5, 9 schedule",40 mg/kg
same,activity against the experimental murine tumor line L1210 leukemia,"[2]; dose range 2.5-20 mg/kg, result in words",active
same,solubility,[3],greater than 10 mg/ml
cis-[Pt(NH3)2Cl2] [Cisplatin],water solubility,[4],about 1 mg/ml
